Experimental findings from patent US12295997B2, “Prostate neoantigens and their uses” (Janssen Biotech, Inc., priority 2020, dated 2025) are described below.

Assay [1] has as its system CD8+ T cells in PBMCs from human patients with metastatic castrate-resistant prostate cancer. Nature of the assay: Patient PBMC restimulation assay (in vitro immunogenicity, TNFα/IFNγ intracellular flow cytometry). It counts as cell-based. The settings on record: 9-mer peptide; for Maximum fold change over negative control: TNFα+IFNγ+CD8+ T cells, highest across PBMC donors evaluated; for Maximum frequency of TNFα^+IFNγ^+CD8^+ T cells (Percent): greatest frequency among all tested PBMC donors; for Immunogenic: patient PBMC restimulation. As for the experimental part: PBMCs from human patients with metastatic castrate-resistant prostate cancer were thawed using media (RPMI 1640 supplemented with Glutamax, 10% HI FBS, and 1× Sodium Pyruvate). Cells were counted and plated in a 96 well round bottom microplate at a concentration of 250,000 viable cells per well. Lyophilized peptides were solubilized in 100% DMSO and diluted in media to 10 μg/mL. Neoantigen peptides were added in equal volume to PBMCs for a final concentration of 5 μg/mL. CEF Peptide Pool “Plus” (Cellular Technologies, Ltd.) was utilized as a positive control and DMSO at the same final concentration as the experimental peptides was utilized as a negative control. Human IL-15 (Peprotech) was added to all wells at final concentration of 10 ng/mL.
Plates were incubated at 37° C. (5% CO2) for a total of 13 days. Media was refreshed every 2 days with IL-15 (10 ng/mL final concentration) and IL-2 (R&D systems, 10 IU/mL final concentration). On day 12, PBMCs were re-stimulated with identical experimental peptides or controls, at same concentration as peptide stimulation on Day 1. After 1-hour incubation, protein Inhibitor Cocktail (eBioscience) was added to every well and plate was incubated overnight.
On day 13, cells were stained for intracellular flow cytometry analysis. The cells were washed with PBS and stained with Live/Dead Fixable Aqua Dead Cell stain (Thermo-Fisher). Following the live/dead stain, cells were blocked using Biotin-Free Fc Receptor Blocker (Accurate Chemical & Scientific Corp). Extracellular cellular flow panel ([…] per well in 50 μL) consisted of CD3 PerCP-Cy5.5 (Biolegend), CD4 BV421 (Biolegend), and CD8 APC-Cy7 (Biolegend). After extracellular staining, cells were fixed using Foxp3/fTranscription Factor Staining Buffer Set (eBioscience) and stained for intracellular proteins (1:50 dilution) using TNFα FITC (R&D Systems) and IFNγ BV785 (Biolegend). Cells were washed and resuspended in stain buffer and analyzed using a BD Celesta flow cytometer.
Flow cytometry cell staining analysis was completed using FlowJo v10. Cells were gated on live, singlet, CD3+ cells. The CD8+ T cells were analyzed for TNFα/IFNγ expression and the frequency of double positive TNFα/IFNγ CD8+ T cells was recorded. Responses were assessed to be positive when the frequency of double positive TNFα/IFNγ CD8+ T cells due to stimulation with an experimental peptide was increased greater than or equal to 2-fold over the DMSO only negative control for that patient. Peptides were analyzed in 1 to 7 patient samples.
The 9 mer fragments shown in Table 13 were assessed for their ability to activate T cells using the Patient PBMC restimulation assay described in Example 1 using TNFα and IFNγ production by CD8^+ T cells as a readout. Self-antigens shown in Table 15 were also used in the assays. […] PBMCs from ten patients were evaluated.

The test system of assay [2] is CD8+ and CD4+ T cells (autologous CD3+ Pan-T cells isolated from human normal PBMCs). The experiment in a line: Exogenous autologous normal donor restimulation assay (15-mer overlapping peptide pools on CD1c+ dendritic cells, TNFα/IFNγ flow cytometry). As to conditions: 15-mer overlapping peptide pool; for Maximum Fold Change Over Background CD4+ cells / Maximum Fold Change Over Background CD8+ cells / Maximum Frequency of TNFα/IFNγ Double Positive CD4+ T cells / Maximum Frequency of TNFα/IFNγ Double Positive CD8+ T cells: Table 25; for Maximum Fold Change Over Background CD4+ cells: TNFα+IFNγ+ CD4+ T cells; for Maximum Fold Change Over Background CD4+ cells / Maximum Fold Change Over Background CD8+ cells: highest fold change over negative control across normal donors; for Maximum Fold Change Over Background CD8+ cells: TNFα+IFNγ+ CD8+ T cells; for Maximum Frequency of TNFα/IFNγ Double Positive CD4+ T cells / Maximum Frequency of TNFα/IFNγ Double Positive CD8+ T cells: highest frequency across normal donors; for Max. Fold Change over background CD4+ TNFαINFγ double positive DP / Max. Fold Change over background CD8+ TNFαINFγ double positive DP / Max. Frequency of CD4+ TNFαINFγ DP / Max. Frequency of CD8+ TNFαINFγ DP: Table 28, additional neoantigens, highest across normal donors. It counts as cell-based. A digest of the protocol:
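Readout was intracellular TNFα/IFNγ flow cytometry on live CD3+ CD8+ and CD4+ cells after day-11 peptide restimulation. Stimulators were CD1c+ dendritic cells loaded with overlapping 15-mer peptide pools (2.5–10 μg/mL), irradiated, and cultured 12 days with autologous normal-donor Pan-T cells plus IL-15/IL-2. A response counted when ≥3-fold over DMSO control and at least 0.01%.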
(In general: Flow cytometry measures light scatter and fluorescence of single cells or particles in a stream.)

In the case of P77 (FFKRAAEGF) [Peptide P77], in assay [1], the “Maximum fold change over negative control” value is listed as 3.24, the “Maximum frequency of TNFα^+IFNγ^+CD8^+ T cells (Percent)” value (“Maximum frequency … (Percent)” for short) was determined as 0.160% and the Immunogenic entry is “Yes”.

For “GVPGDSTRRAVRRMNTF (listed as Homo sapiens) [Neoantigen P16]”, in assay [1], the “Maximum fold change over negative control” value is given as 65.82, the “Maximum frequency … (Percent)” value turned out to be 4.620% and the Immunogenic entry is given as “Yes”. Further, in assay [2], the “Maximum Fold Change Over Background CD4+ cells” value was 2.44, the “Maximum Fold Change Over Background CD8+ cells” value is given as 2.44, the “Maximum Frequency of TNFα/IFNγ Double Positive CD4+ T cells” value came out at 0.039 and the “Maximum Frequency of TNFα/IFNγ Double Positive CD8+ T cells” value turned out to be 0.039.

In the case of “P37 (MAGGVLRRLLCREPDRDGDKGASREETVVPLHIGDPVVLPGIGQCYSALF; listed as Homo sapiens) [Peptide P37]”, in assay [1], the “Maximum fold change over negative control” value is on record as 3.13, the “Maximum frequency … (Percent)” value is 1.160% and the Immunogenic entry was “Yes”.

Take “P50 (QMAVIQYSCMGLMVFAM; listed as Homo sapiens) [Peptide P50]”: in assay [1], the “Maximum fold change over negative control” value stood at 5.14, the “Maximum frequency … (Percent)” value is 0.190% and the Immunogenic entry is “Yes”.

For “NSKMALNSLNSIDDAQLTRIAPPRSHCCFWEVNAP (listed as Homo sapiens) [Neoantigen P35]”, in assay [1], the “Maximum fold change over negative control” value is listed as 2.67, the “Maximum frequency … (Percent)” value was 0.064% and the Immunogenic result was “Yes”. Also, in assay [2], the “Maximum Fold Change Over Background CD4+ cells” value was determined as 3.47, the “Maximum Fold Change Over Background CD8+ cells” value was found to be 14.44, the “Maximum Frequency of TNFα/IFNγ Double Positive CD4+ T cells” value came to 0.03 and the “Maximum Frequency of TNFα/IFNγ Double Positive CD8+ T cells” value is listed as 0.26.

For “P27 (LHPQRETFTPRWSGANYWKLAFPVGAEGTFPAAATQRGVVRPA; listed as Homo sapiens) [Peptide P27]”, in assay [1], the “Maximum fold change over negative control” value is given as 3.43, the “Maximum frequency … (Percent)” value amounted to 0.430% and the Immunogenic result is recorded as “Yes”.

Regarding “P59 (LHPDSGNMVENGCYLRR; listed as Homo sapiens) [Peptide P59]”, in assay [1], the “Maximum fold change over negative control” value was found to be 10.75, the “Maximum frequency … (Percent)” value stood at 3.010% and the Immunogenic result is reported as “Yes”.

B1: PVAIKPGTGPPNNSSIHGGSKRSENSYCRDLRGQLRAICCSSYSHDRHTTEERGSRGRHVWRIRRLHTSGLPCCCHSGPHPRRLPDILRLVTSTKTDHTNTTEGTLDYL (peptide, listed as Homo sapiens)
chain: PVAIKPGTGPPNNSSIHGGSKRSENSYCRDLRGQLRAICCSSYSHDRHTTEERGSRGRHVWRIRRLHTSGLPCCCHSGPHPRRLPDILRLVTSTKTDHTNTTEGTLDYL
notes: RBM47 alternative splicing
As for B1, in assay [2], the “Max. Fold Change over background CD4+ TNFαINFγ double positive DP” value was found to be 78.51, the “Max. Fold Change over background CD8+ TNFαINFγ double positive DP” value is listed as 4.96, the “Max. Frequency of CD4+ TNFαINFγ DP” value was 0.61 and the “Max. Frequency of CD8+ TNFαINFγ DP” value was 0.07.

B2: LLNAEDYRCAIHSKEIYLLSPSPHQAMDKFSLCCINCNLCLHVFLLLLFFQNKDVWLISNIILLWIYGGI (peptide, listed as Homo sapiens)
chain: LLNAEDYRCAIHSKEIYLLSPSPHQAMDKFSLCCINCNLCLHVFLLLLFFQNKDVWLISNIILLWIYGGI
notes: TM9SF3 alternative splicing
Regarding B2, in assay [2], the “Max. Fold Change over background CD4+ TNFαINFγ double positive DP” value came to 128.76, the “Max. Fold Change over background CD8+ TNFαINFγ double positive DP” value was determined as 6.35, the “Max. Frequency of CD4+ TNFαINFγ DP” value turned out to be 0.18 and the “Max. Frequency of CD8+ TNFαINFγ DP” value is reported as 0.6.

B3: KGSVERRSVSLGHPAEGWAWAERSLQPGMTTANTGCLSFHHRGCLLPVLPKLHCGLGGLPLVRAKEIKRVQRAGESSLPVKGLLTVASAVIAVLWGRPSEVTGENEAQHD (peptide, listed as Homo sapiens)
chain: KGSVERRSVSLGHPAEGWAWAERSLQPGMTTANTGCLSFHHRGCLLPVLPKLHCGLGGLPLVRAKEIKRVQRAGESSLPVKGLLTVASAVIAVLWGRPSEVTGENEAQHD
notes: ILDR1 alternative splicing
In the case of B3, in assay [2], the “Max. Fold Change over background CD4+ TNFαINFγ double positive DP” value stood at 184.87, the “Max. Fold Change over background CD8+ TNFαINFγ double positive DP” value came out at 6.85, the “Max. Frequency of CD4+ TNFαINFγ DP” value is on record as 0.63 and the “Max. Frequency of CD8+ TNFαINFγ DP” value was 0.1.

B4: FGLTTLAGRSSHGTSGLRAATHTKSGDGGQGAARQCEKLLELARATRPWGRSTSASSRWTHRGYMCPPRCAVACW (peptide, listed as Homo sapiens)
chain: FGLTTLAGRSSHGTSGLRAATHTKSGDGGQGAARQCEKLLELARATRPWGRSTSASSRWTHRGYMCPPRCAVACW
notes: PEX10 alternative splicing
As for B4, in assay [2], the “Max. Fold Change over background CD4+ TNFαINFγ double positive DP” value was 113.91, the “Max. Fold Change over background CD8+ TNFαINFγ double positive DP” value is 4.02, the “Max. Frequency of CD4+ TNFαINFγ DP” value turned out to be 0.43 and the “Max. Frequency of CD8+ TNFαINFγ DP” value turned out to be 0.35.
